Data from BindingDB's records for doi:10.1021/acs.biochem.5b01325 (University of Texas At San Antonio, 2016).

What follows are molecules tested against T1, (S)-6-hydroxynicotine oxidase (Paenarthrobacter nicotinovorans, UniProt O86101) (assay: Steady-State Kinetics). Conditions: pH 8.
T1 sequence (O86101 whole entry): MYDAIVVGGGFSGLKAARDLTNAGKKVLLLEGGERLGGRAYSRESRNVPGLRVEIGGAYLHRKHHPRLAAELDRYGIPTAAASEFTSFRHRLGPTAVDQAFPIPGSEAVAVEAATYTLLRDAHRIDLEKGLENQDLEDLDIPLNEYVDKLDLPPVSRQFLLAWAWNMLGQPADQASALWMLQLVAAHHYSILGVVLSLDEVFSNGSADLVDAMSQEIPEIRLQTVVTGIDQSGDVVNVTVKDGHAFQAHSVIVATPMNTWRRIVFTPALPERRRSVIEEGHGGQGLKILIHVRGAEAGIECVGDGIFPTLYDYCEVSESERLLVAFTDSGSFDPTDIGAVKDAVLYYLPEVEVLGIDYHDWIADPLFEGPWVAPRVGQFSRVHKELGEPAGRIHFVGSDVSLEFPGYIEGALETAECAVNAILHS
Method: Initial rates of amine oxidation were routinely measured by monitoring oxygen consumption in 0.1 M Hepes (pH 8.0) and 0.1 M NaCl at 25 °C using an oxygen electrode (model 5300A, Yellow Springs Instruments, Yellow Springs, OH). With (R,S)-6-hydroxynicotine and (S)-6-hydroxynornicotine, the concentration of enzyme was typically 0.1 μM; this was increased to 4 μM for (S)-nicotine and (R,S)-4-(1-methyl pyrrolidine-2-yl)phenol. The concentration of oxygen was varied by bubbling the desired concentration of oxygen (62 μM to 1.25 mM) into the oxygen electrode cell for ∼10 min.

SMILES | Kd
CN1CCC[C@H]1c1ccc(=O)[nH]c1 [(S)-6-hydroxynicotine] | 100 µM
CN1CCC[C@H]1c1ccc(O)cc1 [(S)-4-(1-methylpyrrolidine-2-yl)phenol] | 2000 µM
O=c1ccc([C@@H]2CCCN2)c[nH]1 [(S)-6-hydroxynornicotine] | 300 µM
